Test results: paper PMC9090415, “Discovery of small molecule inhibitors of Plasmodium falciparum apicoplast DNA polymerase” (Journal of Enzyme Inhibition and Medicinal Chemistry, 2022)

Target: P. falciparum apicoplast DNA polymerase (Pf-apPOL) (Plasmodium falciparum, UniProt Q8ILY1)
Assay: Fluorescence-based high-throughput DNA polymerase assay (molecular beacon), primary screen and dose-response
Type: biochemical
Settings: for DNA Pol: 90 min, 10 µM; for % inhibition apPOL 180' 2.5 / % inhibition apPOL 180' 5 / % inhibition apPOL 180' 10 / % inhibition apPOL 180' 20 / % inhibition apPOL 180' 40 / % inhibition apPOL 180' 80: read at 180'
Procedure, shortened: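 Single-point screening used 10 µM compound with 20 nM polymerase, 20 nM hairpin substrate and 6 µM dNTPs for 90 min at 25 °C. Confirmatory titrations (2.5–80 µM) followed fluorescence at three times, and IC50 was derived from a fit including a cooperativity term n.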

Chain of P. falciparum apicoplast DNA polymerase (Pf-apPOL) (Q8ILY1 entry or part of it): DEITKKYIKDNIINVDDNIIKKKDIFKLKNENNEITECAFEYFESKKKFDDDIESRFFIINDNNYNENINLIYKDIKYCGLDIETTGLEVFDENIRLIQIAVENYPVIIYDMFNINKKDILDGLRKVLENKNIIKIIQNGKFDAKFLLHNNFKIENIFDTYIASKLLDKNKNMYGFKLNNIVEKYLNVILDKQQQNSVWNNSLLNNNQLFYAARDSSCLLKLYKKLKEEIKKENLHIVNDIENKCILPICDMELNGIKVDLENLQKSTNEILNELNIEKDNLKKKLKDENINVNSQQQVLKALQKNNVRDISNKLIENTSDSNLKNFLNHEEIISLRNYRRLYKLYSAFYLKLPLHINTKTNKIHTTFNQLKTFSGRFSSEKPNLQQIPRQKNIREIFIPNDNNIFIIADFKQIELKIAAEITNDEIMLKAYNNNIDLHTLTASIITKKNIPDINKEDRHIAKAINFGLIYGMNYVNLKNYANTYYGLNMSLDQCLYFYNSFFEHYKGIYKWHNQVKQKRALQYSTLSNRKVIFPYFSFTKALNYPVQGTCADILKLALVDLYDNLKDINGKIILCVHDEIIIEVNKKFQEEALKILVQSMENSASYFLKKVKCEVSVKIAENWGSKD

With COc1ccc(/C=C/c2cc(C(=O)O)c3ccccc3n2)cc1 [Molecule 5, COc1ccc(cc1)/C=C/c1nc2ccccc2c(c1)C(=O)O] the “DNA Pol” value (186 hits, DNA Pol (screen value), unit not given) was 61, the “DNA Pol” value ('DNA Pol' (screen value), unit not given) was 61 and the “% inhibition Apo pol 10' 2.5” value (DRC-1, read at 10', concentration 2.5) was 43.4862%. For the same compound, the “% inhibition Apo pol 10' 5” value (DRC-1, read at 10', concentration 5) was 53.3879%, the “% inhibition Apo pol 10' 10” value (DRC-1, read at 10', concentration 10) was 61.7052% and the “% inhibition Apo pol 10' 20” value (DRC-1, read at 10', concentration 20) was 65.8277%. For the same compound, the “% inhibition Apo pol 10' 40” value (DRC-1, read at 10', concentration 40) was 71.2771%, the “% inhibition Apo pol 10' 80” value (DRC-1, read at 10', concentration 80) was 72.4327% and the “% inhibition Apol 90' 2.5” value (DRC-1, read at 90', concentration 2.5) was 35.7188%. The “% inhibition Apol 90' 5” value (DRC-1, read at 90', concentration 5) was 44.8099%, the “% inhibition Apol 90' 10” value (DRC-1, read at 90', concentration 10) was 55.1819% and the “% inhibition Apol 90' 20” value (DRC-1, read at 90', concentration 20) was 60.94%. For the same compound, the “% inhibition Apol 90' 40” value (DRC-1, read at 90', concentration 40) was 68.5014%, the “% inhibition Apol 90' 80” value (DRC-1, read at 90', concentration 80) was 67.8921% and the “% inhibition apPOL 180' 2.5” value (DRC-1, concentration 2.5) was 28.4361%. For the same compound, the “% inhibition apPOL 180' 5” value (DRC-1, concentration 5) was 35.945%, the “% inhibition apPOL 180' 10” value (DRC-1, concentration 10) was 46.8104% and the “% inhibition apPOL 180' 20” value (DRC-1, concentration 20) was 54.1695%. The “% inhibition apPOL 180' 40” value (DRC-1, concentration 40) was 63.6204%, the “% inhibition apPOL 180' 80” value (DRC-1, concentration 80) was 63.471% and the “% inhibition Apo pol 5'” value (DRC-2, concentration 20) was 38%. The “% inhibition Apol 40'” value (DRC-2, concentration 2.5) was 46%, the “% inhibition Apol 40'” value (DRC-2, concentration 5) was 36% and the “% inhibition Apol 40'” value (DRC-2, concentration 20) was 46%. For the same compound, the “% inhibition Apol 40'” value (DRC-2, concentration 80) was 38%, the “% inhibition ApPOL 90'” value (DRC-2, concentration 2.5) was 45% and the “% inhibition ApPOL 90'” value (DRC-2, concentration 5) was 36%. The “% inhibition ApPOL 90'” value (DRC-2, concentration 20) was 46%, the “% inhibition apPOL 180'” value (DRC-2, concentration 20) was 38% and the “% inhibition apPOL 180'” value (DRC-2, concentration 80) was 45%. The “% inhibition Apo pol 5' 2.5” value (DRC-2, read at 5', concentration 2.5) was 37%, the “% inhibition Apo pol 5' 5” value (DRC-2, read at 5', concentration 5) was 31% and the “% inhibition Apo pol 5' 10” value (DRC-2, read at 5', concentration 10) was 8.56%. For the same compound, the “% inhibition Apo pol 5' 20” value (DRC-2, read at 5', concentration 20) was 38%, the “% inhibition Apo pol 5' 40” value (DRC-2, read at 5', concentration 40) was 43% and the “% inhibition Apo pol 5' 80” value (DRC-2, read at 5', concentration 80) was 14%. For the same compound, the “% inhibition Apol 40' 2.5” value (DRC-2, read at 40', concentration 2.5) was 46%, the “% inhibition Apol 40' 5” value (DRC-2, read at 40', concentration 5) was 36% and the “% inhibition Apol 40' 10” value (DRC-2, read at 40', concentration 10) was -66%. The “% inhibition Apol 40' 20” value (DRC-2, read at 40', concentration 20) was 46%, the “% inhibition Apol 40' 40” value (DRC-2, read at 40', concentration 40) was 55% and the “% inhibition Apol 40' 80” value (DRC-2, read at 40', concentration 80) was 38%. The “% inhibition ApPOL 90' 2.5” value (DRC-2, read at 90', concentration 2.5) was 45%, the “% inhibition ApPOL 90' 5” value (DRC-2, read at 90', concentration 5) was 36% and the “% inhibition ApPOL 90' 10” value (DRC-2, read at 90', concentration 10) was -90%. For the same compound, the “% inhibition ApPOL 90' 20” value (DRC-2, read at 90', concentration 20) was 46%, the “% inhibition ApPOL 90' 40” value (DRC-2, read at 90', concentration 40) was 56% and the “% inhibition ApPOL 90' 80” value (DRC-2, read at 90', concentration 80) was 44%. For the same compound, the “% inhibition apPOL 180' 2.5” value (DRC-2, concentration 2.5) was 34%, the “% inhibition apPOL 180' 5” value (DRC-2, concentration 5) was 25% and the “% inhibition apPOL 180' 10” value (DRC-2, concentration 10) was -139%. For the same compound, the “% inhibition apPOL 180' 20” value (DRC-2, concentration 20) was 38%, the “% inhibition apPOL 180' 40” value (DRC-2, concentration 40) was 50% and the “% inhibition apPOL 180' 80” value (DRC-2, concentration 80) was 45%.
With O=C(Cc1cc(=O)[nH]c(SCc2ccccc2)n1)Nc1ccc2c(c1)OCO2 [Molecule 46, O=C(Cc1cc(=O)[nH]c(n1)SCc1ccccc1)Nc1ccc2c(c1)OCO2] the “DNA Pol” value ("DNA Pol" of the 186 hits list (screen value)) was 35, the “% inhibition Apo pol 10'” value (DRC-1, concentration 2.5) was -0.9773% and the “% inhibition Apo pol 10'” value (DRC-1, concentration 5) was 2.643%. The “% inhibition Apo pol 10'” value (DRC-1, concentration 10) was 32.2663%, the “% inhibition Apo pol 10'” value (DRC-1, concentration 20) was 58.1636% and the “% inhibition Apo pol 10'” value (DRC-1, concentration 40) was 83.7049%. For the same compound, the “% inhibition Apo pol 10'” value (DRC-1, concentration 80) was 86.7652%, the “% inhibition Apol 90'” value (DRC-1, concentration 2.5) was -4.834% and the “% inhibition Apol 90'” value (DRC-1, concentration 5) was -3.621%. For the same compound, the “% inhibition Apol 90'” value (DRC-1, concentration 10) was 17.8668%, the “% inhibition Apol 90'” value (DRC-1, concentration 20) was 43.05% and the “% inhibition Apol 90'” value (DRC-1, concentration 40) was 73.6983%. The “% inhibition Apol 90'” value (DRC-1, concentration 80) was 82.3218%, the “% inhibition apPOL 180'” value (DRC-1, concentration 2.5) was -11.1217% and the “% inhibition apPOL 180'” value (DRC-1, concentration 5) was -9.027%. For the same compound, the “% inhibition apPOL 180'” value (DRC-1, concentration 10) was 5.286%, the “% inhibition apPOL 180'” value (DRC-1, concentration 20) was 25.3173% and the “% inhibition apPOL 180'” value (DRC-1, concentration 40) was 61.8193%. For the same compound, the “% inhibition apPOL 180'” value (DRC-1, concentration 80) was 77.2818%, the “% inhibition Apo pol 5'” value (DRC-2, concentration 2.5) was -0.743% and the “% inhibition Apo pol 5'” value (DRC-2, concentration 5) was -0.197%. The “% inhibition Apo pol 5'” value (DRC-2, concentration 10) was 23%, the “% inhibition Apo pol 5'” value (DRC-2, concentration 20) was 29% and the “% inhibition Apo pol 5'” value (DRC-2, concentration 40) was 27%. The “% inhibition Apo pol 5'” value (DRC-2, concentration 80) was 20%, the “% inhibition Apol 40'” value (DRC-2, concentration 2.5) was -1% and the “% inhibition Apol 40'” value (DRC-2, concentration 5) was 0.92%. The “% inhibition Apol 40'” value (DRC-2, concentration 10) was 30%, the “% inhibition Apol 40'” value (DRC-2, concentration 20) was 47% and the “% inhibition Apol 40'” value (DRC-2, concentration 40) was 55%. The “% inhibition Apol 40'” value (DRC-2, concentration 80) was 53%, the “% inhibition ApPOL 90'” value (DRC-2, concentration 2.5) was -1% and the “% inhibition ApPOL 90'” value (DRC-2, concentration 5) was -0.186%. The “% inhibition ApPOL 90'” value (DRC-2, concentration 10) was 27%, the “% inhibition ApPOL 90'” value (DRC-2, concentration 20) was 49% and the “% inhibition ApPOL 90'” value (DRC-2, concentration 40) was 60%. For the same compound, the “% inhibition ApPOL 90'” value (DRC-2, concentration 80) was 61%, the “% inhibition apPOL 180'” value (DRC-2, concentration 2.5) was -5.33% and the “% inhibition apPOL 180'” value (DRC-2, concentration 5) was -9%. The “% inhibition apPOL 180'” value (DRC-2, concentration 10) was 17%, the “% inhibition apPOL 180'” value (DRC-2, concentration 20) was 41% and the “% inhibition apPOL 180'” value (DRC-2, concentration 40) was 62%. For the same compound, the “% inhibition apPOL 180'” value (DRC-2, concentration 80) was 67% and the “DNA Pol” value (primary screen value, DNA Pol) was 35.
